Assay results published in the NIST ThermoML archive (doi:10.1016/j.fluid.2011.01.001).

Tests used:
[1] = 101.33 kPa, Liquid, Vibrating tube method
[2] = refractive index (Na D-line) (dimensionless); details: 101.33 kPa, Liquid, Standard Abbe refractometry
[3] = mn = molality of the nth substance listed, in mol/kg; details: 101 kPa, Liquid, Vibrating tube method

CCn1cc[n+](C)c1.COS(=O)(=O)[O-] [1-ethyl-3-methylimidazolium methylsulfate]
Details | mass density, 298.15 K [kg/m3] | mass density, 308.15 K [kg/m3] | mass density, 318.15 K [kg/m3] | mass density, 328.15 K [kg/m3] | refractive index, 298.15 K | refractive index, 308.15 K | refractive index, 318.15 K | refractive index, 328.15 K
[1] | 1361.2 | 1333.2 | 1319.2 | 1300.3 | – | – | – | –
[2] | – | – | – | – | 1.4822 | 1.4782 | 1.4759 | 1.4704

CCn1cc[n+](C)c1.COS(=O)(=O)[O-] [1-ethyl-3-methylimidazolium methylsulfate] + O
mass density [kg/m3], [3]
Details | 298.15 K | 308.15 K | 318.15 K | 328.15 K
m1 = 0.0166 | 998.28 | 995.1 | 991.05 | 985.78
m1 = 0.0244 | 998.78 | 995.59 | 991.42 | 986.12
m1 = 0.0302 | 999.18 | 995.94 | 991.68 | 986.36
m1 = 0.0372 | 999.58 | 996.31 | 992 | 986.62
m1 = 0.0702 | 1001.29 | 997.81 | 993.46 | 987.97
m1 = 0.077 | 1001.59 | 998.05 | 993.68 | 988.23
m1 = 0.0961 | 1002.25 | 998.74 | 994.43 | 988.9
m1 = 0.1191 | 1003.09 | 999.51 | 995.31 | 989.75
m1 = 0.1346 | 1003.69 | 999.99 | 995.93 | 990.36
m1 = 0.1823 | 1005.3 | 1002.08 | 997.93 | 992.14
m1 = 0.3343 | 1011.4 | 1008.04 | 1003.88 | 997.71
m1 = 0.4226 | 1014.99 | 1011.67 | 1007.18 | 1000.86
m1 = 0.5486 | 1020.29 | 1017.02 | 1011.85 | 1005.32
m1 = 0.573 | 998.28 | 1018.1 | 1012.71 | 1006.1

CCCCCCn1cc[n+](C)c1.CCOS(=O)(=O)[O-] [1-hexyl-3-methylimidazolium ethyl sulfate]
Details | mass density, 298.15 K [kg/m3] | mass density, 308.15 K [kg/m3] | mass density, 318.15 K [kg/m3] | mass density, 328.15 K [kg/m3] | refractive index, 298.15 K | refractive index, 308.15 K | refractive index, 318.15 K | refractive index, 328.15 K
[1] | 1137.54 | 1130.74 | 1124.29 | 1117.81 | – | – | – | –
[2] | – | – | – | – | 1.4677 | 1.4636 | 1.4596 | 1.4566

CCCCCCn1cc[n+](C)c1.CCOS(=O)(=O)[O-] [1-hexyl-3-methylimidazolium ethyl sulfate] + O
mass density [kg/m3], [3]
Details | 298.15 K | 308.15 K | 318.15 K | 328.15 K
m1 = 0.0113 | 997.55 | 994.52 | 990.63 | 985.41
m1 = 0.0347 | 998.58 | 995.5 | 991.48 | 986.2
m1 = 0.0419 | 998.9 | 995.8 | 991.73 | 986.44
m1 = 0.0614 | 999.73 | 996.6 | 992.41 | 987.07
m1 = 0.0677 | 1000 | 996.84 | 992.62 | 987.28
m1 = 0.1085 | 1001.65 | 998.38 | 994 | 988.57
m1 = 0.2177 | 1005.67 | 1002.07 | 997.31 | 991.8
m1 = 0.3501 | 1010 | 1005.78 | 1000.86 | 995.29
m1 = 0.433 | 1012.3 | 1007.9 | 1002.92 | 997.21
m1 = 0.5618 | 1015.56 | 1010.89 | 1005.91 | 1000.07
m1 = 0.7474 | 1019.59 | 1014.5 | 1009.79 | 1003.7
m1 = 0.8741 | 1021.74 | 1016.59 | 1012.03 | 1005.94
m1 = 1.17 | 1025.65 | 1020.79 | 1016.28 | 1010.91
m1 = 1.343 | 1027.8 | 1023.36 | 1018.31 | 1013.65

CCCCCCn1cc[n+](C)c1.COS(=O)(=O)[O-] [1-hexyl-3-methylimidazolium methyl sulfate]
Details | mass density, 298.15 K [kg/m3] | mass density, 308.15 K [kg/m3] | mass density, 318.15 K [kg/m3] | mass density, 328.15 K [kg/m3] | refractive index, 298.15 K | refractive index, 308.15 K | refractive index, 318.15 K | refractive index, 328.15 K
[1] | 1156.93 | 1150.32 | 1143.84 | 1137.38 | – | – | – | –
[2] | – | – | – | – | 1.4733 | 1.4708 | 1.4683 | 1.4654

CCCCCCn1cc[n+](C)c1.COS(=O)(=O)[O-] [1-hexyl-3-methylimidazolium methyl sulfate] + O
mass density [kg/m3], [3]
Details | 298.15 K | 308.15 K | 318.15 K | 328.15 K
m1 = 0.0118 | 997.55 | 994.47 | 990.58 | 985.32
m1 = 0.0314 | 998.37 | 995.17 | 991.17 | 985.78
m1 = 0.0497 | 999.1 | 995.8 | 991.69 | 986.21
m1 = 0.076 | 1000.09 | 996.65 | 992.4 | 986.8
m1 = 0.0937 | 1000.68 | 997.19 | 992.86 | 987.21
m1 = 0.154 | 1002.59 | 998.9 | 994.35 | 988.41
m1 = 0.3076 | 1006.3 | 1002.6 | 997.53 | 990.95
m1 = 0.5023 | 1010.81 | 1006.62 | 1001.55 | 994.25
m1 = 0.6255 | 1013.9 | 1009.13 | 1003.9 | 996.3
m1 = 0.7024 | 1015.42 | 1010.54 | 1005.28 | 997.49
m1 = 0.8838 | 1020.02 | 1014 | 1008.57 | 1000.18
m1 = 1.071 | 1024.02 | 1017.44 | 1012.23 | 1002.98
m1 = 1.284 | 1028.91 | 1021.24 | 1015.5 | 1005.89
m1 = 1.544 | 1034.22 | 1026.15 | 1020.01 | 1009
